The target in experiment [1] is T1, ryanodine receptor 1 (RyR1) (Homo sapiens, UniProt P21817).
T1 construct: wild-type human skeletal myotubes
Briefly: Fura-2 Ca2+ imaging, inhibition of Ca2+ release induced by […] ryanodine. The experiment is classed as cell-based.

The target in experiment [2] is T2, ryanodine receptor 1 (RyR1) (Oryctolagus cuniculus, UniProt P11716).
T2 construct: full-length RyR1 purified from wild-type rabbit skeletal muscle; with FKBP12.6
Kind of experiment: protection from AziPm photolabelling ([…] propofol) in purified RyR1; the IC50 is from [3H]ryanodine binding in wild-type heavy SR vesicles at pCa […] (species not given, assumed).

Experiment [3] addresses T2, ryanodine receptor 1 (RyR1). Kind of experiment: photoaffinity labelling of purified RyR1-FKBP12.[…] with MS; the IC50 is from [3H]ryanodine binding in wild-type heavy SR vesicles at pCa […] (species not given, assumed).

T2 sequence (P11716 whole entry): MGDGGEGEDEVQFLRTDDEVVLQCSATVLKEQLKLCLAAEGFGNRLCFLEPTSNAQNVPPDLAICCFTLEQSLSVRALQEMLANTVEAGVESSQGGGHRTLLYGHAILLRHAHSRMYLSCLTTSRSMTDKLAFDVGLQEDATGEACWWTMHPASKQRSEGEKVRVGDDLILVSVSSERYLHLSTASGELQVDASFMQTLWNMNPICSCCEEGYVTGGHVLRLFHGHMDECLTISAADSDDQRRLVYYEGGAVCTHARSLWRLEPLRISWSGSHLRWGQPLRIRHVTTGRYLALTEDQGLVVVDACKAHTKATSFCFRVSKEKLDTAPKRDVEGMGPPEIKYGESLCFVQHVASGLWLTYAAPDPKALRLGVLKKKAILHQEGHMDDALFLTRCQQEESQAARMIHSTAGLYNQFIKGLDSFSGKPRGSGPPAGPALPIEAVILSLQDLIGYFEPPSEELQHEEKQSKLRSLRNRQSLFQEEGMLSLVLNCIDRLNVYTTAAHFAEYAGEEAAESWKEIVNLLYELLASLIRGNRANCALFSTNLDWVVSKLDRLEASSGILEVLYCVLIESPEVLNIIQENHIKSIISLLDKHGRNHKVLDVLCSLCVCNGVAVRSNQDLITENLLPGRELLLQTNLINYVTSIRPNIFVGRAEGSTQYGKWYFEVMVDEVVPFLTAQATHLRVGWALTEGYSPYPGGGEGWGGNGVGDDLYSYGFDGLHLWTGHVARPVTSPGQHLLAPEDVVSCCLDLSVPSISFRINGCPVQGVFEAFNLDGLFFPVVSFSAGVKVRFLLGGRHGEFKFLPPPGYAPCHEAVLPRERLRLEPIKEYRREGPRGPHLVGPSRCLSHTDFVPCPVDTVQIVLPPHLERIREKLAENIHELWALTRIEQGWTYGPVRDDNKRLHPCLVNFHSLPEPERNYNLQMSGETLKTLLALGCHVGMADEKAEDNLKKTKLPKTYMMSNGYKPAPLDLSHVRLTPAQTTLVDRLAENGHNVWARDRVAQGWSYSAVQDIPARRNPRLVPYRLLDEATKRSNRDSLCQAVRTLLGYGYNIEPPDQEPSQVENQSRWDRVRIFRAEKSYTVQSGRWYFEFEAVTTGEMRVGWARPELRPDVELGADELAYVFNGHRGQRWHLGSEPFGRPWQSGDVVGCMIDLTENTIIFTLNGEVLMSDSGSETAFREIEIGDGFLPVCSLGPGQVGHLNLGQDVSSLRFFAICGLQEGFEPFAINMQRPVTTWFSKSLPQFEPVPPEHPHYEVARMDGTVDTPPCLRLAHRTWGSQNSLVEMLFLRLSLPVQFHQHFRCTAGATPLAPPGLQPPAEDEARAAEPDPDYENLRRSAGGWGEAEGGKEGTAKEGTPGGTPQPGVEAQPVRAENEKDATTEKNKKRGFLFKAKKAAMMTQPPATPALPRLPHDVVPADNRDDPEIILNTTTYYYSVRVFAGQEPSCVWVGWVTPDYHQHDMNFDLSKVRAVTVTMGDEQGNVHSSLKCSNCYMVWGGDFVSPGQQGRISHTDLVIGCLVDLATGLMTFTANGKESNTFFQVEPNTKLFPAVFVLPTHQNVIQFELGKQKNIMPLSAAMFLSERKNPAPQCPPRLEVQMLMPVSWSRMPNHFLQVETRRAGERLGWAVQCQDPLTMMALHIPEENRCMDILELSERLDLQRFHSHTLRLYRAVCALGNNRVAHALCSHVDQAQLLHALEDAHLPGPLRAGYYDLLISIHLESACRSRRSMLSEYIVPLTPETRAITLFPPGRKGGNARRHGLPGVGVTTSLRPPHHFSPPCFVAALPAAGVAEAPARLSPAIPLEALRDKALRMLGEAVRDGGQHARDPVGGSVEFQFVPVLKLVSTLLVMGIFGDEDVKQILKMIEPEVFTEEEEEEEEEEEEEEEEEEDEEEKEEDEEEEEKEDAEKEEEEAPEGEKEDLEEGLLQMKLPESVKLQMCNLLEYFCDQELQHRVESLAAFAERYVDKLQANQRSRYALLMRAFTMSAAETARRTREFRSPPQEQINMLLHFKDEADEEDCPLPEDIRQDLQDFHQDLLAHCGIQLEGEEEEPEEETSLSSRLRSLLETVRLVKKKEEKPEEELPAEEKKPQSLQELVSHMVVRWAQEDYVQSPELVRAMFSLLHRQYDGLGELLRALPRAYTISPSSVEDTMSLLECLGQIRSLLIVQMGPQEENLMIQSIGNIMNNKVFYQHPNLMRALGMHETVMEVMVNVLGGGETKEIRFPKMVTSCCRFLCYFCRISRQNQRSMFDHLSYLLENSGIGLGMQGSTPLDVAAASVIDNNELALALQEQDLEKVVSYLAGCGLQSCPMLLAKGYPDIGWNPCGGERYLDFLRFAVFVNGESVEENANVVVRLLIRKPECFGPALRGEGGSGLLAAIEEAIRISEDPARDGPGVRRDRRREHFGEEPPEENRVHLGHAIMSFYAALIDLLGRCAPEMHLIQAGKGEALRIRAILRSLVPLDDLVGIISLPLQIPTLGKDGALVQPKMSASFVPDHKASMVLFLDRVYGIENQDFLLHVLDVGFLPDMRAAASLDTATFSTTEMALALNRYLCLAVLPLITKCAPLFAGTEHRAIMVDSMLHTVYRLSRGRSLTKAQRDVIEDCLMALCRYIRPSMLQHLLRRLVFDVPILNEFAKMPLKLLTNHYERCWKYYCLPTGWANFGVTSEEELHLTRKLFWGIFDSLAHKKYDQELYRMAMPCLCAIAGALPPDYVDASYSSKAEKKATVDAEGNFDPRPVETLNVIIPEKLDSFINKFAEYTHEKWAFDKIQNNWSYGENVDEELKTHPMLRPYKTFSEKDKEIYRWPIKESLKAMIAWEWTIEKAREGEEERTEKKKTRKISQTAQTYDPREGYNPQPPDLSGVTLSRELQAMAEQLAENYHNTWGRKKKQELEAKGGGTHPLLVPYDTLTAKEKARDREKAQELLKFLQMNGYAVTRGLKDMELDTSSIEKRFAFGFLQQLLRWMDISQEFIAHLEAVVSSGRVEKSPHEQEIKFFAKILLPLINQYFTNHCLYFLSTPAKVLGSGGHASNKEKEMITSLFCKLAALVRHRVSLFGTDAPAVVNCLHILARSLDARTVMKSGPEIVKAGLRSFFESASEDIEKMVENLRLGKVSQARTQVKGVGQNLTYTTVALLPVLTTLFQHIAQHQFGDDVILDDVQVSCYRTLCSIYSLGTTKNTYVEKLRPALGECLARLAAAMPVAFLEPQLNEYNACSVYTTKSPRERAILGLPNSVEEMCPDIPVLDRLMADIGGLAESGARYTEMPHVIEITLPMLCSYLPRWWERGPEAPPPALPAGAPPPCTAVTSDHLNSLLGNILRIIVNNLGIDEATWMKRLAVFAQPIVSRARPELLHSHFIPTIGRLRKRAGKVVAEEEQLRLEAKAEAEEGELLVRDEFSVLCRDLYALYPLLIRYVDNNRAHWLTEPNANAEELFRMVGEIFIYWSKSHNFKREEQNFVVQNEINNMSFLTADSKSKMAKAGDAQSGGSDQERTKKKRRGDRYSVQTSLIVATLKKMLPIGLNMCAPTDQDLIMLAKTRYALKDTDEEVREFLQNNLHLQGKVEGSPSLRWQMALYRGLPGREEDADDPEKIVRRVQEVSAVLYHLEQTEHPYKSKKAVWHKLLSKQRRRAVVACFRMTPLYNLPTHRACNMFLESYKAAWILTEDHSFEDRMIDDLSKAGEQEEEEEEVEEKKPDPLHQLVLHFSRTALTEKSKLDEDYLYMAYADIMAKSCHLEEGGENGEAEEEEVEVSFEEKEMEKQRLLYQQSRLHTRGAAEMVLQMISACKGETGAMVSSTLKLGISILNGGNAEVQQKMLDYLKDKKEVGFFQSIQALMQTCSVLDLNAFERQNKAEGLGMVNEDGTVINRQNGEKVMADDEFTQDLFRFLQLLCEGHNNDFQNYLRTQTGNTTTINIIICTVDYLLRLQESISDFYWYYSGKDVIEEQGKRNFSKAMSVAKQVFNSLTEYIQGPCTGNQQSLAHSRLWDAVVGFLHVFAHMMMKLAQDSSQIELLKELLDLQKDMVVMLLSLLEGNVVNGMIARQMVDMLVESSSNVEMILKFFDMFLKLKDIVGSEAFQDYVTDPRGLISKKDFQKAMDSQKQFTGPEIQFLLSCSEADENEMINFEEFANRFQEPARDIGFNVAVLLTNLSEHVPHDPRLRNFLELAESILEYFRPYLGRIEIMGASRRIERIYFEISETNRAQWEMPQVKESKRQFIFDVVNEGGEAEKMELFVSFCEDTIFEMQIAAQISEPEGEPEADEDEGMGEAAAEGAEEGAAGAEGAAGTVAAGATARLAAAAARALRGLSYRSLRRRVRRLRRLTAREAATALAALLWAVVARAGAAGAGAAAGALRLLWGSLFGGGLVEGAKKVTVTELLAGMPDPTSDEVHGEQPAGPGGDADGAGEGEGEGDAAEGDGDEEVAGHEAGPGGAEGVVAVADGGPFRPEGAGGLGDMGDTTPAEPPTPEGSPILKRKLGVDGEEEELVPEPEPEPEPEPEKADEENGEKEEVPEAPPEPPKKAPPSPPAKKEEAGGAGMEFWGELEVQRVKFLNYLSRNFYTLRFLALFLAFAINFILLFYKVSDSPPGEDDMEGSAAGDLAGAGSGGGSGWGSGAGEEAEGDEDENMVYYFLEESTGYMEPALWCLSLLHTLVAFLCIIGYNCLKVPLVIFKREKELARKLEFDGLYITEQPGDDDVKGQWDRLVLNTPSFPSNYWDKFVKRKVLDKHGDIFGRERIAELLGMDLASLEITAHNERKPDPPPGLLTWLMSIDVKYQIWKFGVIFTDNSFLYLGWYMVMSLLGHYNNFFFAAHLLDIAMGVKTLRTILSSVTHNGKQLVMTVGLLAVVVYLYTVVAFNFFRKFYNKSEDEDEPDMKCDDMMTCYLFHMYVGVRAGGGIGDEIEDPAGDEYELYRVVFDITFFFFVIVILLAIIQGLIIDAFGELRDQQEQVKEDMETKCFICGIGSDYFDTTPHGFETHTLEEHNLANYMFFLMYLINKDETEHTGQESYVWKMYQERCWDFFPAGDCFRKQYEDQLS

Regarding `CC(C)c1cccc(C(C)C)c1O` [Propofol], the IC50 – broadly, the point on the concentration scale where inhibition reaches its midpoint – in experiment [1] stood at 29.5 µM; in experiment [2], 5.8 µM.
Regarding `CC(C)c1ccc(C2(C(F)(F)F)N=N2)cc1O` [m-azipropofol], the IC50 in experiment [3] was found to be 6.9 µM.

Values taken from article PMC11488158 (BJA: British Journal of Anaesthesia, 2024).
